Results as given in PubChem BioAssay AID1963868 (Molecular Pharmacology Branch, DTP, NCI, 2024).

System: KRAS PDC tumor spheroids (HUVEC+MSC), viability
Assay: Anticancer human tumor 254851-301-R-J1-PDC patient-derived colon carcinoma cell line growth inhibition [KRAS2]
Conditions: for viability, T/C: stronger effect = lower value
Outline: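 KRAS-mutant tumor cells were grown as spheroids with HUVEC endothelial cells and human MSCs as stroma. Targeted agents were tested alone and with KRAS pathway inhibitors. Doses started at or near clinical Cmax, or 10 microM, descending half-log.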

[1] = curve of first compound, second compound 0.1 µM
[2] = curve of first compound, second compound 0.316 µM
[3] = curve of first compound, second compound 1 µM
[4] = curve of first compound, second compound 3.16 µM
[5] = second compound 0.1 µM, first compound 0.0316 µM
[6] = second compound 0.1 µM, first compound 0.1 µM
[7] = second compound 0.1 µM, first compound 0.316 µM
[8] = second compound 0.1 µM, first compound 1 µM
[9] = second compound 0.1 µM, first compound 3.16 µM
[10] = second compound 0.1 µM, first compound 10 µM
[11] = second compound 0.316 µM, first compound 0.0316 µM
[12] = second compound 0.316 µM, first compound 0.1 µM
[13] = second compound 0.316 µM, first compound 0.316 µM
[14] = second compound 0.316 µM, first compound 1 µM
[15] = second compound 0.316 µM, first compound 3.16 µM
[16] = second compound 0.316 µM, first compound 10 µM
[17] = second compound 1 µM, first compound 0.0316 µM
[18] = second compound 1 µM, first compound 0.1 µM
[19] = second compound 1 µM, first compound 0.316 µM
[20] = second compound 1 µM, first compound 1 µM
[21] = second compound 1 µM, first compound 3.16 µM
[22] = second compound 1 µM, first compound 10 µM
[23] = second compound 3.16 µM, first compound 0.0316 µM
[24] = second compound 3.16 µM, first compound 0.1 µM
[25] = second compound 3.16 µM, first compound 0.316 µM
[26] = second compound 3.16 µM, first compound 1 µM
[27] = second compound 3.16 µM, first compound 3.16 µM
[28] = second compound 3.16 µM, first compound 10 µM
[29] = curve of first compound, second compound 0.0316 µM
[30] = second compound 0.0316 µM, first compound 0.0316 µM
[31] = second compound 0.0316 µM, first compound 0.1 µM
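Further: spheroids exposed to compounds for seven days before readout.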
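Wherever viability, T/C is given: 100% = DMSO vehicle control luminescence of the spheroids.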

## O=C(c1cc(Cc2n[nH]c(=O)c3ccccc23)ccc1F)N1CCN(C(=O)C2CC2)CC1 + CNCc1ccccc1-c1csc(C(C)Nc2nc(C)nc3cc(OC)c(OC)cc23)c1
[1]
  IC50: > 10 µM
[2]
  IC50: > 10 µM
[3]
  IC50: > 10 µM
[4]
  IC50: > 10 µM
Curve of first compound, second compound 10 µM
  IC50: < 0.0316 µM
[5]
  viability, T/C: 101%
[6]
  viability, T/C: 109%
[7]
  viability, T/C: 104%
[8]
  viability, T/C: 108%
[9]
  viability, T/C: 113%
[10]
  viability, T/C: 105%
[11]
  viability, T/C: 107%
[12]
  viability, T/C: 108%
[13]
  viability, T/C: 107%
[14]
  viability, T/C: 109%
[15]
  viability, T/C: 104%
[16]
  viability, T/C: 105%
[17]
  viability, T/C: 116%
[18]
  viability, T/C: 109%
[19]
  viability, T/C: 103%
[20]
  viability, T/C: 110%
[21]
  viability, T/C: 105%
[22]
  viability, T/C: 103%
[23]
  viability, T/C: 79.6%
[24]
  viability, T/C: 97.1%
[25]
  viability, T/C: 82.4%
[26]
  viability, T/C: 59.3%
[27]
  viability, T/C: 82.3%
[28]
  viability, T/C: 71.6%
Second compound 10 µM, first compound 0.0316 µM
  viability, T/C: 0.19%
Second compound 10 µM, first compound 0.1 µM
  viability, T/C: 0.29%
Second compound 10 µM, first compound 0.316 µM
  viability, T/C: 0.18%
Second compound 10 µM, first compound 1 µM
  viability, T/C: 0.17%
Second compound 10 µM, first compound 3.16 µM
  viability, T/C: 0.17%
Second compound 10 µM, first compound 10 µM
  viability, T/C: 0.22%

## COc1cc2nc(C)nc(NC(C)c3cc(N)cc(C(F)(F)F)c3)c2cc1OC1CCOC1 (centres undefined)
Compound 1 µM
  viability, T/C: 92.5% [middle of 17 runs]
Compound alone, run of 07/12/2021
  IC50: > 10 µM
Compound alone, run of 07/19/2021
  IC50: > 10 µM
Compound alone, run of 07/26/2021
  IC50: > 10 µM

## CC1(C)CCC(CN2CCN(c3ccc(C(=O)NS(=O)(=O)c4ccc(NCC5CCOCC5)c([N+](=O)[O-])c4)c(Oc4cnc5[nH]ccc5c4)c3)CC2)=C(c2ccc(Cl)cc2)C1 + C=CC(=O)N1CCN(c2nc(OCC3CCCN3C)nc3c2CCN(c2cccc4cccc(C)c24)C3)CC1CC#N
[29]
  IC50: > 10 µM
[1]
  IC50: > 10 µM
[2]
  IC50: > 10 µM
[3]
  IC50: 6.39 µM
[4]
  IC50: 0.371 µM
[30]
  viability, T/C: 95.8%
[31]
  viability, T/C: 101%
Second compound 0.0316 µM, first compound 0.316 µM
  viability, T/C: 97.3%
Second compound 0.0316 µM, first compound 1 µM
  viability, T/C: 98%
Second compound 0.0316 µM, first compound 3.16 µM
  viability, T/C: 95.6%
Second compound 0.0316 µM, first compound 10 µM
  viability, T/C: 90%
[5]
  viability, T/C: 98.5%
[6]
  viability, T/C: 106%
[7]
  viability, T/C: 92.4%
[8]
  viability, T/C: 100%
[9]
  viability, T/C: 90.3%
[10]
  viability, T/C: 86.1%
[11]
  viability, T/C: 106%
[12]
  viability, T/C: 107%
[13]
  viability, T/C: 80.9%
[14]
  viability, T/C: 85.3%
[15]
  viability, T/C: 81%
[16]
  viability, T/C: 73.8%
[17]
  viability, T/C: 88%
[18]
  viability, T/C: 106%
[19]
  viability, T/C: 101%
[20]
  viability, T/C: 81.4%
[21]
  viability, T/C: 70.7%
[22]
  viability, T/C: 37.8%
[23]
  viability, T/C: 57%
[24]
  viability, T/C: 56.2%
[25]
  viability, T/C: 45%
[26]
  viability, T/C: 36.4%
[27]
  viability, T/C: 0.19%
[28]
  viability, T/C: 0.19%

## CN(C)C/C=C/C(=O)Nc1cc2c(Nc3ccc(F)c(Cl)c3)ncnc2cc1O[C@H]1CCOC1 + C=CC(=O)N1CCN(c2nc(OCC3CCCN3C)nc3c2CCN(c2cccc4cccc(C)c24)C3)CC1CC#N
[29]
  IC50: > 0.1 µM
[1]
  IC50: > 0.1 µM
[2]
  IC50: > 0.1 µM
[3]
  IC50: > 0.1 µM
[4]
  IC50: > 0.1 µM
Second compound 0.0316 µM, first compound 0.000316 µM
  viability, T/C: 97.2%
Second compound 0.0316 µM, first compound 0.001 µM
  viability, T/C: 99.7%
Second compound 0.0316 µM, first compound 0.00316 µM
  viability, T/C: 94.7%
Second compound 0.0316 µM, first compound 0.01 µM
  viability, T/C: 96.7%
[30]
  viability, T/C: 97.9%
[31]
  viability, T/C: 78.7%
Second compound 0.1 µM, first compound 0.000316 µM
  viability, T/C: 105%
Second compound 0.1 µM, first compound 0.001 µM
  viability, T/C: 101%
Second compound 0.1 µM, first compound 0.00316 µM
  viability, T/C: 88.5%
Second compound 0.1 µM, first compound 0.01 µM
  viability, T/C: 92.6%
[5]
  viability, T/C: 97.7%
[6]
  viability, T/C: 69.7%
Second compound 0.316 µM, first compound 0.000316 µM
  viability, T/C: 101%
Second compound 0.316 µM, first compound 0.001 µM
  viability, T/C: 97.8%
Second compound 0.316 µM, first compound 0.00316 µM
  viability, T/C: 92.6%
Second compound 0.316 µM, first compound 0.01 µM
  viability, T/C: 75%
[11]
  viability, T/C: 89.3%
[12]
  viability, T/C: 74.5%
Second compound 1 µM, first compound 0.000316 µM
  viability, T/C: 104%
Second compound 1 µM, first compound 0.001 µM
  viability, T/C: 97.9%
Second compound 1 µM, first compound 0.00316 µM
  viability, T/C: 91.4%
Second compound 1 µM, first compound 0.01 µM
  viability, T/C: 95.9%
[17]
  viability, T/C: 96.7%
[18]
  viability, T/C: 82.3%
Second compound 3.16 µM, first compound 0.000316 µM
  viability, T/C: 67.5%
Second compound 3.16 µM, first compound 0.001 µM
  viability, T/C: 61.5%
Second compound 3.16 µM, first compound 0.00316 µM
  viability, T/C: 51.8%
Second compound 3.16 µM, first compound 0.01 µM
  viability, T/C: 54.6%
[23]
  viability, T/C: 62.6%
[24]
  viability, T/C: 52.1%
